Reference: patent US20240334934A1, “FUNGICIDE MIXTURE” (priority 2021, published 2024)
Read-outs that look alike come from different tables or passages of the source.

Experiments:
[1] = test system: Gibberella avenacea K6939; assay: Efficacy of purified CtmC alone in-vitro, 96 well plate, OD 620 nm; type: cell-based; conditions: CtmC 10 ppm
Method: (§1) CtmC was dissolved in DMSO (Dimethylsulfoxid) to a final concentration of 1000 ppm to create a stock solution. A second dilutions of 1:10 was made in water+0.025% Tween 20. From this second dilution 10 μl are dispensed into a 96 well plate. To each well, 90 μl of medium (PDB—potato dextrose broth, plus 0.3% agar) with fungal spores are added and mixed, resulting in final CtmC concentrations of 10 ppm. All wells containing CtmC also contain DMSO (1%) and Tween 20 (0.0025%). In the following table 4 some of the species were tested using several distinct isolates (internal strain number indicated) to understand variability among different isolates of the same species sampled in different locations, producing different mycotoxins (genus Fusarium), or expressing various tolerances to fungicides of the SDHI (Succinate Dehydrogenase Inhibitor), SBI (Sterol Biosynthesis Inhibitors) and/or QoI (quinone outside inhibitors) classes (example: Zymoseptoria tritici). Different isolates had variable inoculum density and number of biological repicas, as indicated.

Fusarium culmorum K8196 = assay: as above; type: cell-based; conditions: CtmC 10 ppm
Method: as §1

[2] = test system: Colletotrichum lindemuthianum K5893; assay: as above; type: cell-based; conditions: CtmC 10 ppm
Method: as §1

Fusarium culmorum K5488 = assay: as above; type: cell-based; conditions: CtmC 10 ppm
Method: as §1

[3] = test system: Zymoseptoria tritici K6420; assay: as above; type: cell-based; conditions: CtmC 10 ppm
Method: as §1

[4] = test system: Ramularia collo-cygni K6218; assay: as above; type: cell-based; conditions: CtmC 10 ppm
Method: as §1

Fusarium culmorum K6937 = assay: as above; type: cell-based; conditions: CtmC 10 ppm
Method: as §1

[5] = test system: Colletotrichum orbiculare K5770; assay: as above; type: cell-based; conditions: CtmC 10 ppm
Method: as §1

[6] = test system: Zymoseptoria tritici K6318; assay: as above; type: cell-based; conditions: CtmC 10 ppm
Method: as §1

[7] = test system: Zymoseptoria tritici K6105; assay: as above; type: cell-based; conditions: CtmC 10 ppm
Method: as §1

Zymoseptoria tritici = assay: Greenhouse test, wheat, preventative; type: in vivo; conditions: 1 day preventative, EC50 formulation
Method: Purified Cyclothiazomycin C (CtmC) was formulated as an EC50 formulation. The formulation was diluted in water at rates of 100 ppm and 50 ppm of CtmC. Plants were treated with 400 L/ha of the diluted product supplemented with an adjuvant to improve sticking and spreading, resulting in a treatment of 40 g/ha and 20 g/ha of CtmC, respectively.
Zymoseptoria tritici wheat/preventative (Septoria tritici leaf spot on wheat). 2-week old wheat plants cv. Riband are sprayed in a spray chamber with the formulated test compound diluted in water. The test plants are inoculated by spraying a spore suspension on them one day after application. After an incubation period of 1 day at 22° C./21° C. (day/night) and 95% rh, the inoculated test plants are kept at 22° C./21° C. (day/night) and 70% rh in a greenhouse. Efficacy is assessed directly when an appropriate level of disease appears on untreated check plants (16-19 days after application).

[8] = test system: Zymoseptoria tritici K6420; assay: Efficacy of mixtures of streptimidone and CtmC, liquid culture in PDB, optical density 620 nm; type: cell-based; conditions: K6420, read-out: % Efficacy
[9] = test system: Fusarium langsethiae K5670; type: cell-based; conditions: CtmC 10 ppm
[10] = test system: Zymoseptoria tritici K6105; assay: Efficacy of mixtures of streptimidone and CtmC, liquid culture in PDB, optical density 620 nm; type: cell-based
[11] = test system: Fusarium virguliforme isolate 1; assay: Efficacy of purified CtmC, 96-well growth assay, IC50 from OD620; type: cell-based
Method: (§2) A Fusarium virguliforme spore suspension of 25′000 spores/ml was produced in PDB (potato dextrose broth) medium supplemented with 0.3% agar. Isolates of the species originate from Syngenta internal collection (CH).
(§3) CtmC was dissolved in DMSO (Dimethylsulfoxid) to a final concentration of 1000 ppm to create a stock solution. Different dilutions of CtmC were created in DMSO: 1000 ppm, 330 ppm, 110 ppm, 37 ppm, 12 ppm and 4.1 ppm. 10 μl of DMSO or CtmC solution were transferred to a 96-well-dilution plate and diluted 10-fold with 90 μl 0.025% Tween 20/1H2O solution. Out of the dilution plate, 10 μl were transferred to a 96 well assay plate and 90 μl spore suspension were added to each well.
(§4) 96 Well plates were then incubated for 72 h at 24° C., 90% relative humidity in the dark. Plates were evaluated by reading the OD at 620 nm.
(§5) Assays were run on two independent isolates for the species. Each isolate was tested twice (assay 1 and assay 2) and each isolate x fungicide rate combination was duplicated on the test plates.
(§6) The OD620 was averaged over the two wells and used to calculate IC50 values (fungicide concentration resulting in 50% inhibition of growth) with the program GraphPad prism, resulting in 4 independent IC50 values. No significant differences were found between both isolates tested: […]

[12] = test system: Fusarium virguliforme isolate 2; assay: as above; type: cell-based
Method: as §2, §3, §4, §5, §6

Puccinia triticina = assay: Leaf disc assay, wheat leaf segments, preventive; type: in vivo; conditions: rate 20 ppm, 8 dpi
Method: A CtmC stock was generated at 1000 ppm in DMSO, then Diluted 1:50 in water+Tween 20 at 0.025% resulting in a 20 ppm solution.
Puccinia triticina (also known as recondite, Brown rust, wheat): Wheat leaf segments are placed on agar in multiwell plates (24-well format) and sprayed with test solutions. After drying, the leaf disks are inoculated with a spore suspension of the fungus. After appropriate incubation the activity of a compound is assessed 8 dpi (days after inoculation) as preventive fungicidal activity.

[13] = 72 h at 24° C., 25'000 spores/ml

In the case of `C=C1NC(=O)CNC(=O)[C@H](CCCCN)NC(=O)[C@@]2(C)NC(=O)/C(=C/C)NC(=O)[C@H]3CSC(=N3)[C@@H](CC(N)=O)CC(=O)c3ccc(nc3[C@@H](C)NC(=O)[C@@H]3CCCN3C1=O)-c1nc(cs1)C1=N[C@H](CS1)C(=O)NC(=C)c1nc(cs1)-c1nc(cs1)C1=N[C@@H](CS1)C(=O)N[C@@H](C(=O)O)CS2` [CtmC, cyclothiazomycin C], the “efficacy (%)” value [1] is reported as 82%, the “optical density at 620 nm” value ([1]; blank 0.055, untreated 0.675) is reported as 0.165 and the “efficacy (%)” value (Fusarium culmorum K8196) is reported as 48%. For the same compound, the “optical density at 620 nm” value (Fusarium culmorum K8196; blank 0.055, untreated 0.701) was 0.388, the “efficacy (%)” value [2] was 45% and the “optical density at 620 nm” value ([2]; blank 0.046, untreated 0.373) was 0.225. The “efficacy (%)” value (Fusarium culmorum K5488) was 52%, the “optical density at 620 nm” value (Fusarium culmorum K5488; blank 0.046, untreated 0.374) was 0.203 and the “efficacy (%)” value [3] was 93%. The “optical density at 620 nm” value ([3]; blank 0.048, untreated 0.257) was 0.064, the “efficacy (%)” value [4] was 60% and the “optical density at 620 nm” value ([4]; blank 0.043, untreated 0.231) was 0.119. For the same compound, the “efficacy (%)” value (Fusarium culmorum K6937) was 44%, the “optical density at 620 nm” value (Fusarium culmorum K6937; blank 0.052, untreated 0.528) was 0.319 and the “efficacy (%)” value [5] was 56%. The “optical density at 620 nm” value ([5]; blank 0.035, untreated 0.449) was 0.218, the “efficacy (%)” value [6] was 98% and the “optical density at 620 nm” value ([6]; blank 0.054, untreated 0.253) was 0.059. For the same compound, the “efficacy (%)” value [7] was 99%, the “optical density at 620 nm” value ([7]; blank 0.044, untreated 0.354) was 0.046 and the “efficacy 20 g/ha (%)” value (Zymoseptoria tritici; 20 g/ha) was 44%. The “efficacy 40 g/ha (%)” value (Zymoseptoria tritici; 40 g/ha) was 16%, the Emax at 0.0556 ppm [8] was 0% and the Emax at 0.1667 ppm [8] was 23%. For the same compound, the Emax at 0.5 ppm [8] was 47%, the “efficacy (%)” value [9] was 94% and the “optical density at 620 nm” value ([9]; blank 0.053, untreated 0.346) was 0.072. The Emax at 0.0556 ppm ([10]; K6105, read-out: % Efficacy, CtmC 0.0556 ppm alone (Streptimidone 0), lower sub-table) was 0%, the Emax at 0.0556 ppm ([10]; K6105, read-out: % Efficacy, CtmC 0.0556 ppm alone (Streptimidone 0), upper sub-table) was 19% and the Emax at 0.1667 ppm ([10]; K6105, read-out: % Efficacy, CtmC 0.1667 ppm alone (Streptimidone 0), lower sub-table) was 23%. The Emax at 0.1667 ppm ([10]; K6105, read-out: % Efficacy, CtmC 0.1667 ppm alone (Streptimidone 0), upper sub-table) was 61%, the Emax at 0.5 ppm ([10]; K6105, read-out: % Efficacy, CtmC 0.5000 ppm alone (Streptimidone 0), lower sub-table) was 47% and the Emax at 0.5 ppm ([10]; K6105, read-out: % Efficacy, CtmC 0.5000 ppm alone (Streptimidone 0), upper sub-table) was 78%. For the same compound, the “IC50 (ppm) Assay-1” value [11, 13] was 0.8 ppm, the “IC50 (ppm) Assay-2” value [11, 13] was 1.6 ppm and the “IC50 (ppm) average” value ([11]; average of Assay-1 and Assay-2) was 1.2 ppm. For the same compound, the IC50 ([11]; both tested isolates) was “ca. 1 ppm”, the “IC50 (ppm) Assay-1” value [12, 13] was 0.7 ppm and the “IC50 (ppm) Assay-2” value [12, 13] was 1.5 ppm. For the same compound, the “IC50 (ppm) average” value ([12]; average of Assay-1 and Assay-2) was 1.1 ppm, the IC50 ([12]; both tested isolates) was “ca. 1 ppm” and the “control of fungal growth (%)” value (Puccinia triticina) was 90%.
